Laboratory results published in patent publication US10253002B2, “Compounds and methods of treating infections” (Neoculi Pty Ltd., priority 2013, dated 2019).
≈ marks a conversion by molar mass, not a printed value. Where “and” joins values, the source holds several entries; their conditions need not be identical. Identical values can stand only once. Like-named read-outs stand apart in the source and are kept apart here.

What was measured:
[1] = tested on: VRE; test: Broth microdilution MIC, Example 7 (NCL812 and analogues); type: cell-based, Enterococcus spp.; details: for activity against VRE among analogues: MIC testing, two VRE strains; for MIC: Enterococcus; for MIC / VRE: VRE
Procedure, shortened: (§1)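 Turbidity read visually and then at 600 nm defined the MIC (μg/ml), comparing drug-containing wells with a growth-control well lacking antimicrobial. Testing followed the CLSI broth microdilution method, in duplicate, using two strains per organism group.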

[2] = Bioassay ranking of the analogues tested; details: M + R (MRSA and VRE combined)
[3] = tested on: MRSA; test: Broth microdilution MIC, Example 7 (NCL812 and analogues); type: cell-based, Staphylococcus aureus; details: for activity against MRSA among analogues: MIC testing, two MRSA strains; for MIC: Staphylococcus aureus; for MRSA / MIC: MRSA
Procedure, shortened: as §1

[4] = tested on: Pseudomonas aeruginosa; test: as above; type: cell-based; details: for MIC: Pseudomonas aeruginosa, 24 h, read-out: MIC (μg/ml) at 24 hours P. aeruginosa, P. aeruginosa, 24 hours
[5] = tested on: Escherichia coli; test: as above; type: cell-based; details: 24 hours; for MIC: Escherichia coli, read-out: MIC (μg/ml) at 24 hours E. coli
[6] = VRE 1, 24 hours, duplicate lines per compound
[7] = VRE 2, 24 hours, duplicate lines per compound
[8] = MRSA 1, 24 hours, duplicate lines per compound
[9] = MRSA 2, 24 hours, duplicate lines per compound
[10] = P. aeruginosa, duplicate lines per compound
[11] = E. coli, duplicate lines per compound
[12] = 24 h, read-out: MIC (μg/ml) at 24 hours VRE 1, VRE 1, 24 hours
[13] = 24 h, read-out: MIC (μg/ml) at 24 hours VRE 2, VRE 2, 24 hours
[14] = bioassay ranking, read-out: VRE
[15] = 24 h, read-out: MIC (μg/ml) at 24 hours MRSA 1, MRSA 1, 24 hours
[16] = 24 h, read-out: MIC (μg/ml) at 24 hours MRSA 2, MRSA 2, 24 hours
[17] = bioassay ranking, read-out: MRSA
[18] = isolate VRE 1, 24 hours, 1st and 2nd replicate rows
[19] = isolate VRE 2, 24 hours, 1st and 2nd replicate rows
[20] = isolate MRSA 1, 24 hours, 1st and 2nd replicate rows
[21] = isolate MRSA 2, 24 hours, 1st and 2nd replicate rows

Row | SMILES | activity against VRE among analogues [1] | MIC (μg/ml) at 24 hours, VRE 1 [1, 6] [µg/mL] | MIC (μg/ml) at 24 hours, VRE 2 [1, 7] | M + R [2] [µg/mL] | activity against MRSA among analogues [3] | MIC (μg/ml) at 24 hours, MRSA 1 [3, 8] | MIC (μg/ml) at 24 hours, MRSA 2 [3, 9] | MRSA ([3]; bioassay ranking) [µg/mL] | MIC (μg/ml) at 24 hours, P. aeruginosa [4, 10] [µg/mL] | MIC (μg/ml) at 24 hours, E. coli [5, 11] [µg/mL] | MIC (μg/ml) at 24 hours, VRE 2 ([1]; VRE 2, 24 hours) [µg/mL] | VRE ([1]; bioassay ranking) [µg/mL] | MIC (μg/ml) at 24 hours, MRSA 1 ([3]; MRSA 1, 24 hours) [µg/mL] | MIC (μg/ml) at 24 hours, MRSA 2 ([3]; MRSA 2, 24 hours) [µg/mL] | other results
1 | Cl.N=C(N/N=C/c1ccccc1O)N/N=C/c1ccccc1O [NCL107] | greatest activity | 32 | 128 µg/mL | 46 | greatest activity | 8 µg/mL | 16 µg/mL | 12 | >128 | >128 | – | – | – | – | –
2 | C/C(=N\NC(=N)N/N=C(\C)c1ccc(C(C)(C)C)cc1)c1ccc(C(C)(C)C)cc1.Cl [NCL219] | greatest activity | – | – | 9 | greatest activity | – | – | – | – | – | – | – | – | – | MIC [1, 12]: 16 µg/mL; MIC [1, 13]: 16 µg/mL; MIC [1, 14]: 16 µg/mL; MIC [3, 15]: 2 µg/mL; MIC [3, 16]: 2 µg/mL; MIC [3, 17]: 2 µg/mL; MIC [4]: > 128 µg/mL; MIC ([5]; E. coli): > 128 µg/mL
3 | Nc1nc(N/N=C/c2ccccc2O)cc(N/N=C/c2ccccc2O)n1 [NCL202] | greatest activity | – | – | 9 | greatest activity | – | – | 10 | – | – | 8 (≈ 22 µM) | 8 | 8 (≈ 22 µM) | 8 (≈ 22 µM) | MIC (μg/ml) at 24 hours, VRE 1 ([1]; VRE 1, 24 hours): 8 µg/mL (≈ 22 µM); MIC (μg/ml) at 24 hours, P. aeruginosa ([4]; P. aeruginosa): >128 µg/mL; MIC (μg/ml) at 24 hours, E. coli ([5]; E. coli): >128 µg/mL
4 | Cc1cccc(C=NNC(=N)NN=Cc2cccc(C)c2)c1.Cl [NCL040] | greatest activity | – | – | 8 | greatest activity | – | – | 8 | – | – | – | 8 | – | – | MIC (μg/ml) at 24 hours, VRE 1 [1, 18]: 8 µg/mL; MIC (μg/ml) at 24 hours, VRE 2 [1, 19]: 8 µg/mL; MIC (μg/ml) at 24 hours, MRSA 1 [3, 20]: 8 µg/mL; MIC (μg/ml) at 24 hours, MRSA 2 [3, 21]: 8 µg/mL; MIC (μg/ml) at 24 hours, P. aeruginosa ([4]; 1st and 2nd replicate rows): >128 µg/mL; MIC (μg/ml) at 24 hours, E. coli ([5]; 1st and 2nd replicate rows): >128 µg/mL
5 | Nc1nc(N/N=C/c2ccc(F)cc2)cc(N/N=C/c2ccc(F)cc2)n1 [NCL220] | greatest activity | – | – | 24 | greatest activity | – | – | 16 | – | – | 32 (≈ 87.1 µM) | 32 | 16 (≈ 43.6 µM) | 16 (≈ 43.6 µM) | MIC (μg/ml) at 24 hours, VRE 1 ([1]; VRE 1, 24 hours): 32 µg/mL (≈ 87.1 µM); MIC (μg/ml) at 24 hours, P. aeruginosa ([4]; P. aeruginosa): >128 µg/mL; MIC (μg/ml) at 24 hours, E. coli ([5]; E. coli): >128 µg/mL
6 | Cl.N=C(NN=Cc1cccc(F)c1)NN=Cc1cccc(F)c1 [NCL023] | greatest activity | – | – | 20 | greatest activity | – | – | 16 | – | – | – | 24 | – | – | MIC (μg/ml) at 24 hours, VRE 1 [1, 18]: 32 µg/mL; MIC (μg/ml) at 24 hours, VRE 2 [1, 19]: 16 µg/mL; MIC (μg/ml) at 24 hours, MRSA 1 [3, 20]: 16 µg/mL; MIC (μg/ml) at 24 hours, MRSA 2 [3, 21]: 16 µg/mL; MIC (μg/ml) at 24 hours, P. aeruginosa ([4]; 1st and 2nd replicate rows): >128 µg/mL; MIC (μg/ml) at 24 hours, E. coli ([5]; 1st and 2nd replicate rows): >128 µg/mL
7 | Cl.N=C(N/N=C/c1ccc(Cl)cc1)N/N=C/c1ccccc1Cl [NCL082] | greatest activity | 4 | 2 µg/mL and 4 µg/mL | 5.25 | greatest activity | 8 µg/mL and 4 µg/mL | 8 µg/mL | 7 | >128 | >128 | – | 3.5 | – | – | –
8 | Cc1ccc(/C=N/Nc2cc(N/N=C/c3ccc(C)cc3)nc(N)n2)cc1 [NCL195, 4,6-bis(2-((E)-4-methylbenzylidene)hydrazinyl)pyrimidin-2-amine] | greatest activity | – | – | 2.75 | greatest activity | – | – | – | – | – | 4 (≈ 11.1 µM) | – | 2 (≈ 5.56 µM) | 2 (≈ 5.56 µM) | MIC [1, 12]: 4 µg/mL (≈ 11.1 µM); MIC [1, 13]: 2 µg/mL (≈ 5.56 µM); MIC [1, 14]: 3.5 µg/mL (≈ 9.74 µM); MIC [3, 15]: 2 µg/mL (≈ 5.56 µM); MIC [3, 16]: 2 µg/mL (≈ 5.56 µM); MIC [3, 17]: 2 µg/mL (≈ 5.56 µM); MIC [4]: > 128 µg/mL; MIC ([5]; E. coli): > 128 µg/mL
9 | C/C(=N\NC(=N)N/N=C/c1ccc(Cl)cc1)c1ccc(Cl)cc1.Cl [NCL081] | greatest activity | 1 | 4 µg/mL | 3.75 | greatest activity | 4 µg/mL | 8 µg/mL and 4 µg/mL | 5 | >128 | >128 | – | 2.5 | – | – | –
